The record followed here is patent US8563587B2, “Methods and compositions for treating fish diseases” (HaloSource, Inc., priority 2006, dated 2013).

The test system of data set [1] is Black Skirt Tetras (Gymnocorymbus ternetzi). In words: Fish mortality, MC in ethanol vs MC tablets (Comparative Example 2). The note with it: 300 mg MC in 95% EtOH/water added at once, 7.1 ppm TAC. Format: in vivo. On the procedure:
(§1) A study was performed in which GlowLite (Hemigrammus erthrozonus) and Black Skirt Tetras (Gymnocorymbus ternetzi) were subjected to treatment with MC dissolved in 95% Ethanol (then diluted with water) and another set of the same fish subjected to MC tablets as described in EXAMPLE 1 dosed to equal levels of MC.
(§2) Part 1: Four 5-gallon hexagonal fish tanks were set up as follows: • (a) Hex-1: 5 Black Skirt Tetras (Control Tank—0 ppm TAC) • (b) Hex-2: 5 Black Skirt Tetras (Experimental Tank) • (c) Hex-3: 11 Glow Lite Tetras (Control Tank—0 ppm TAC) • (d) Hex-4: 11 Glow Lite Tetras (Experimental Tank)
(§3) The fish were allowed to acclimate with their surroundings for a period of three days. For the experimental tanks, 300 mg of MC dissolved in 30 g 95% EtOH followed by dilution to 100 mLs total volume with DI water was added. For the control tanks 30 g 95% EtOH diluted to 100 mLs total volume with DI water was added. TAC was measured in the experimental tanks 10 minutes after the addition of the MC solution: HEX-2=7.1 ppm TAC; HEX-4=6.0 ppm TAC. Within three hours, all 11 of the Glow Lite Tetras were dead and 3 out of 5 Black Skirt Tetras were dead.
(§4) Part 2: Three 5-gallon hexagonal fish tanks were set up as follows: • (a) Hex-1: 5 Black Skirt Tetras • (b) Hex-3: 5 Glow Lite Tetras • (c) Hex-4: 5 Glow Lite Tetras
(§5) The fish were allowed to acclimate with their surroundings for a period of 4 hours. All tanks began with 0 ppm TAC. Tablets of MC made from 0.11 g MC pressed with 0.89 g MgSO4, with a ⅝″-diameter tablet as described in EXAMPLE 1 were added to each tank as follows: • (a) Hex-1: 5 Black Skirt Tetras—3 tablets on day 1, 4 tablets on day 2 • (b) Hex-3: 5 Glow Lite Tetras—3 tablets on day 1, 3 tablets on day 2 • (c) Hex-4: 5 Glow Lite Tetras—2 tablets on day 1, 2 tablets on day 2
(§6) Tanks Hex-1 and 2 measured above 6 ppm TAC each day, but took approximately three hours to reach a TAC above 6 ppm. HEX 4 rose to a TAC level of 4.1 ppm TAC within the first day. No fish died throughout the 48-hour experiment.

In data set [2] the test system is GlowLite (Hemigrammus erthrozonus). The description is as above. Format: in vivo. The note with it: of 11 Glow Lite Tetras, within three hours; 300 mg MC in 95% EtOH/water added at once, 6.0 ppm TAC. On the procedure: as §1, §2, §3, §4, §5, §6
Data set [3] in a line: TAC measured in the fish tanks of Comparative Example 2. Format: physicochemical. To be noted: 10 minutes after addition of 300 mg MC in 95% EtOH diluted to 100 mL. The method, then: as §3, §5, §6

SMILES strings stand for the structures.

`CC1(C)NC(=O)C(C)(C)N1Cl` [MC, 1-Chloro-2,2,5,5-tetramethylimidazolidin-4-one]: the dead fish entry was “the remainder of the Black Skirt Tetras were dead” in data set [1] (within 24 hours), 3 out of 5 in data set [1] (within three hours) and 11 in data set [2]. Also, the “TAC in experimental tank” value was found to be 7.1 ppm TAC in data set [3] (HEX-2 (Black Skirt Tetras)) and 6.0 ppm TAC in data set [3] (HEX-4 (Glow Lite Tetras)).
